In patent US5986083A, “Synthetic oligomers having phosphonate internucleosidyl linkages of undefined chirality mixed with non-phosphonate internucleosidyl linkages” (priority 1994, dated 1999):

System: complementary RNA target
Test: Thermal dissociation from complementary RNA target (second Example H)
Format: binding
Details: for Td: 50% of bound oligomer denatured from RNA target, pH 6.8 denaturation buffer; for ΔTd/DE Bond: per DE bond
Procedure: The following oligomers [SEQ. ID. NO. ] were tested for their ability to bind a complementary RNA target. Each has the same nucleotide sequence but with a different number of phosphodiester and/or methylphosphonate linkages.
An RNA target containing a tandem array of complementary target sequences connected by noncomplementary sequences (170 nt long) was prepared from synthetic DNA oligonucleotides by standard closing techniques.
Each of the test oligomers (above) was end-labeled with ^32 p using […] and T4 polynucleotide kinase. The resulting labeled oligomers were purified on a Nensorb-20 column (New England Nuclear/DuPont) according to the manufacturer's specifications. The final specific activity of each oligomer ranged between 2×10^6 and 4×10^6 cpm/pmol (Cerenkov radiation). Annealing reactions were prepared with one of the test oligomers (100,000 cpms) and 250 pmols of RNA target in 20 mM potassium phosphate, 0.03% potassium sarkosylate, 0.1 mM EDTA, pH 7.2, total volume--200 μL. These annealing reactions were heated to 80° C. and then cooled slowly to 4° C. over a period of about 4 to 6 hours. Next, 20 μL aliquots from each tube were transferred to separate tubes containing 0.5 mL of 0.1 M sodium phosphate, 0.1% Triton X-100, pH 6.8. This transfer step was done on ice. The resulting tubes were individually heated at various temperatures "denaturation temperatures", ranging from 10 to 70° C.) in a circulating water bath for five minutes and then quickly cooled by immersion in crushed ice. Next, 10 μL of Amine BioMag (Advanced Magnetics, Inc., Cat. No. M-4100, 50 mg/mL stock in water) was added to the tube and it was vortexed briefly and placed back on ice for 5 minutes. During this time period, the RAN target strands (both free and bound) separated onto the magnetic support. […] Thus, the amount of radioactivity bound to the support was proportional to the amount of hybridized oligomer remaining at each denaturation temperature after five minutes. A curve was then plotted for the percentage of hybridized oligomer remaining at each denaturation temperature. The thermal dissociation temperature (Td) was defined as the temperature at which 50% of the bound oligomer had denatured away from the RNA target. The following table summarizes the results from this experiment.

| Substance | Td [°C] | ΔTd/DE Bond [°C] |
| --- | --- | --- |
| 5'-GpAmTmAmTmCmTmGmCmGmGmTmGmTmCmCmAmT-3' [Oligomer 1036] | 29.3 | – |
| 5'-GpAmTmAmTmCpTmGmCpGmGmTmGmTmCpCpAmT-3' [Oligomer 1361] | 32.2 | 0.7 |
| 5'-GpAmTmAmTdCmTmGpCmGmGmTmGmTpCmCmAmT-3' [Oligomer 1362] | 30.7 | 0.5 |
| 5'-GpAmTpAmTpCmTpGmCmGmGmTpGmTpCmCmAmT-3' [Oligomer 1359] | 34.0 | 0.9 |
| 5'-GpAmTpAmTpCpTpGmCpGmGmTpGmTpCpCpAmT-3' [Oligomer 1363] | 45.2 | 1.8 |
